The values below come from ChEMBL document CHEMBL1201862, “PubChem BioAssay data set” (2004).

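Briefly, cells in 96-well plates were exposed to five compound concentrations for 48 h, and endpoints were estimated by linear interpolation. Abbreviation: GI50, concentration required for 50% inhibition of growth.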 Calls of active or inactive are those of the source. Cut-off read from the data, not from the text of the source: active = GI50 up to about 1.1 µM and inactive = higher.

Among the test systems are K562; SR; UACC-257; SW-620; SNB-19; TK-10; HOP-92; OVCAR-4; SK-MEL-2; KM12; SF-268; MOLT-4; SNB-75; HT-29; OVCAR-8; SK-MEL-5.
Assay in all cases: DTP human tumour cell line panel, 48 h

As a reminder, the GI50 is the concentration at which growth is held to half of that of the control. For the molecule `N=C1c2ccccc2C(=O)c2c(NCCNCCO)ccc(O)c21`, the GI50 in the assay on K562 was 3.64 µM (inactive); in the assay on SR it was 0.579 µM (active); in the assay on UACC-257 it was 13.9 µM (inactive); in the assay with SW-620, 3.1 µM (inactive); in the assay with SNB-19, 8.24 µM (inactive); in the assay with TK-10, 11.9 µM (inactive). Also, the GI50 in the assay on HOP-92 was 24.9 µM (inactive); in the assay on OVCAR-4 it was 23.4 µM (inactive); in the assay on SK-MEL-2, 17.1 µM (inactive); with KM12, 6.92 µM (inactive); in the assay with SF-268, 3.3 µM (inactive); with MOLT-4, 1.88 µM (inactive). For the same molecule, the GI50 was 15.6 µM (inactive) in the assay with SNB-75, 9.02 µM (inactive) in the assay on HT-29, 4.72 µM (inactive) in the assay on OVCAR-8 and 7.03 µM (inactive) with SK-MEL-5.

As to `CC1=C2CCCC2C/C(=N/Nc2ccc([N+](=O)[O-])cc2[N+](=O)[O-])CC1` (centres undefined), the GI50 in the assay on K562, in the assay with SR, in the assay with UACC-257, in the assay with SW-620, with SNB-19 and in the assay on TK-10 was > 100 µM (inactive) in each case. Besides, the GI50 in the assay on HOP-92, in the assay with OVCAR-4, in the assay on SK-MEL-2, in the assay on KM12, in the assay with SF-268 and in the assay with MOLT-4 was > 100 µM (inactive) each time. The GI50 in the assay on SNB-75 was 69.7 µM (inactive); in the assay on HT-29, > 100 µM (inactive); in the assay with OVCAR-8 it was > 100 µM (inactive); in the assay with SK-MEL-5 it was > 100 µM (inactive).

Take `[N-]=[N+]=Nc1ccc(S(=O)(=O)Oc2cc(OS(=O)(=O)c3ccc(N=[N+]=[N-])cc3)cc(OS(=O)(=O)c3ccc(N=[N+]=[N-])cc3)c2)cc1`: the GI50 with K562 was > 100 µM (inactive); in the assay on SR it was > 100 µM (inactive); with UACC-257, > 100 µM (inactive); in the assay on SW-620, > 10 µM (inactive); with SNB-19, > 10 µM (inactive); with TK-10 it was > 100 µM (inactive). The GI50 with HOP-92 is > 100 µM (inactive); in the assay on OVCAR-4, > 10 µM (inactive); in the assay on SK-MEL-2 it was > 100 µM (inactive); in the assay on KM12, > 100 µM (inactive); in the assay with SF-268, > 100 µM (inactive); in the assay on MOLT-4, > 100 µM (inactive). The GI50 in the assay on SNB-75 was > 10 µM (inactive); in the assay on HT-29 it was > 100 µM (inactive); with OVCAR-8 it was > 10 µM (inactive); in the assay on SK-MEL-5, > 100 µM (inactive).

Turning to `CCN(CC)CCCN(c1cc(OC)cc2nccnc12)S(=O)(=O)c1ccc(C)cc1`, the GI50 with K562, with SR, with UACC-257, with SW-620, in the assay with SNB-19 and in the assay on TK-10 was > 100 µM (inactive) in each case. Further, the GI50 in the assay with HOP-92 was > 100 µM (inactive); with OVCAR-4, > 100 µM (inactive); in the assay on SK-MEL-2, > 100 µM (inactive); in the assay on KM12, > 100 µM (inactive); in the assay on SF-268, > 100 µM (inactive); in the assay with MOLT-4, 74.6 µM (inactive). Moreover, the GI50 in the assay with SNB-75 is 37.2 µM (inactive); with HT-29, > 100 µM (inactive); in the assay on OVCAR-8 it was > 100 µM (inactive); with SK-MEL-5, > 100 µM (inactive).

Regarding `COc1ccc(N(C)CN(C)c2nc(N(C)C)nc(N(C)C)n2)cc1`, the GI50 in the assay on K562, with SR, with UACC-257, with SW-620, in the assay on SNB-19 and with TK-10 was > 100 µM (inactive) each time. Also, the GI50 in the assay on HOP-92, in the assay with OVCAR-4, in the assay with SK-MEL-2, with KM12, with SF-268 and in the assay with MOLT-4 was > 100 µM (inactive) throughout. Also, the GI50 in the assay on SNB-75, with HT-29, in the assay with OVCAR-8 and with SK-MEL-5 was > 100 µM (inactive) in each case.

Regarding `CCOc1ccc(NC(=O)CC2C(=O)Nc3ccccc3S2(=O)=O)cc1` (centres undefined), the GI50 in the assay on K562 was > 100 µM (inactive); in the assay on SR it was > 100 µM (inactive); with UACC-257, > 100 µM (inactive); with SW-620, > 100 µM (inactive); in the assay on SNB-19 it was 34.5 µM (inactive); in the assay on TK-10, > 100 µM (inactive). The GI50 with HOP-92 is 13.3 µM (inactive); with OVCAR-4, > 100 µM (inactive); with SK-MEL-2, 75.2 µM (inactive); in the assay with KM12, > 100 µM (inactive); in the assay with SF-268, 42.7 µM (inactive); in the assay on MOLT-4, > 100 µM (inactive). The values for the GI50 with SNB-75, with HT-29 and in the assay on OVCAR-8 were 18.1 µM (inactive), > 100 µM (inactive) and 39.4 µM (inactive), respectively.

On to `COc1c(C)c(O)c2c(c1C)OC(c1ccccc1)CC2=O` (centres undefined), for which the GI50 with K562 was 35.1 µM (inactive); in the assay on SR, 23.5 µM (inactive); in the assay on UACC-257 it was > 10 µM (inactive); in the assay with SW-620 it was 64.4 µM (inactive); with TK-10, 42.9 µM (inactive); in the assay on HOP-92, 29.6 µM (inactive). In addition, the GI50 with OVCAR-4 is 67.9 µM (inactive); in the assay with SK-MEL-2, 22.4 µM (inactive); in the assay on KM12 it was 52.6 µM (inactive); in the assay on SF-268 it was 56.9 µM (inactive); with MOLT-4 it was 31.8 µM (inactive); in the assay on SNB-75, 65 µM (inactive). Besides, the GI50 in the assay on HT-29 was 43.2 µM (inactive); in the assay on OVCAR-8, 62.4 µM (inactive); in the assay with SK-MEL-5 it was > 10 µM (inactive).

As to `O=c1/c(=C/c2ccccc2[N+](=O)[O-])sc2nnc(-c3ccco3)n12`, the GI50 with K562 was 50.9 µM (inactive); with SR it was 32.3 µM (inactive); in the assay on UACC-257, 33.9 µM (inactive); in the assay with SW-620, 20.4 µM (inactive); with SNB-19, 22.4 µM (inactive); in the assay on TK-10, > 100 µM (inactive). In addition, the GI50 is > 100 µM (inactive) in the assay with HOP-92; 22.4 µM (inactive) in the assay with OVCAR-4; 15.8 µM (inactive) with SK-MEL-2; 17.6 µM (inactive) with KM12; 20.1 µM (inactive) in the assay with SF-268; 31.6 µM (inactive) in the assay on MOLT-4. Further, the GI50 is 25.8 µM (inactive) with SNB-75, 28.1 µM (inactive) in the assay with HT-29, 17 µM (inactive) with OVCAR-8 and 19.1 µM (inactive) in the assay with SK-MEL-5.

Consider `COCCOc1cc(C)cc(/C=C(C)/C=C/C2=C(C)CCCC2(C)C)n1`, for which the GI50 is 16.5 µM (inactive) in the assay with SR; 33.2 µM (inactive) in the assay on UACC-257; 59.7 µM (inactive) in the assay with SW-620; > 100 µM (inactive) in the assay with SNB-19; > 100 µM (inactive) in the assay with TK-10; 38.6 µM (inactive) in the assay with HOP-92. Besides, the GI50 in the assay on OVCAR-4 is 59.2 µM (inactive); in the assay with SK-MEL-2, 49 µM (inactive); in the assay on KM12, 70.6 µM (inactive); in the assay on SF-268, > 100 µM (inactive); with MOLT-4, 13.3 µM (inactive); with SNB-75, > 100 µM (inactive). Besides, the GI50 in the assay with HT-29 was 28.6 µM (inactive); in the assay on OVCAR-8, 60.7 µM (inactive); in the assay on SK-MEL-5, 17.3 µM (inactive).

As to `NNC(=O)C(=O)NN=C(C(Cl)(Cl)CO)C(Cl)(Cl)CO`, the GI50 was 36.7 µM (inactive) with K562; 18.6 µM (inactive) in the assay with SR; 30.6 µM (inactive) in the assay on UACC-257; 18.4 µM (inactive) in the assay with SW-620; 48.1 µM (inactive) in the assay with SNB-19; 60.3 µM (inactive) in the assay with TK-10. Besides, the GI50 in the assay on HOP-92 is 33.4 µM (inactive); with OVCAR-4, > 100 µM (inactive); in the assay with SK-MEL-2, 22.1 µM (inactive); with KM12, 44.1 µM (inactive); with SF-268, 36.4 µM (inactive); in the assay with MOLT-4 it was 21.2 µM (inactive). The GI50 in the assay with SNB-75 was 32.5 µM (inactive); in the assay with HT-29, 37.3 µM (inactive); in the assay with OVCAR-8, 21.3 µM (inactive); in the assay on SK-MEL-5, 40.4 µM (inactive).

For `FC(F)(F)c1nc(-c2ccccc2)oc1Sc1nnc(Sc2oc(-c3ccccc3)nc2C(F)(F)F)s1`, the GI50 is 24 µM (inactive) in the assay with K562; 18.5 µM (inactive) in the assay on SR; > 69.7 µM (inactive) in the assay on UACC-257; > 60.3 µM (inactive) with SW-620; > 63.5 µM (inactive) in the assay with SNB-19; > 55.8 µM (inactive) with TK-10. In addition, the GI50 was 29.4 µM (inactive) with HOP-92; 14.7 µM (inactive) with OVCAR-4; 86.7 µM (inactive) with SK-MEL-2; > 100 µM (inactive) with KM12; 58.9 µM (inactive) with SF-268; 6.84 µM (inactive) in the assay on MOLT-4. The GI50 was 37.8 µM (inactive) with SNB-75, > 100 µM (inactive) in the assay with HT-29, 22.7 µM (inactive) with OVCAR-8 and 14.4 µM (inactive) in the assay on SK-MEL-5.

In the case of `COc1cc(/C=C/c2ccc(Br)cc2)cc(OC)c1OC`, the GI50 in the assay on K562 is 3.71 µM (inactive); in the assay with SR, 16.1 µM (inactive); in the assay with UACC-257 it was 13.5 µM (inactive); in the assay with SW-620 it was 7.62 µM (inactive); in the assay with SNB-19 it was 21.1 µM (inactive); in the assay on TK-10, 21.6 µM (inactive). For the same molecule, the GI50 is 12.1 µM (inactive) in the assay on HOP-92; 21.3 µM (inactive) in the assay on OVCAR-4; 14.6 µM (inactive) in the assay on SK-MEL-2; 8.11 µM (inactive) in the assay with KM12; 9.12 µM (inactive) in the assay on SF-268; 3.21 µM (inactive) in the assay with MOLT-4. Besides, the GI50 with SNB-75 was 8.38 µM (inactive); with HT-29, 6.44 µM (inactive); in the assay on OVCAR-8, 28.3 µM (inactive); with SK-MEL-5, 5.9 µM (inactive).
